The record followed here is patent publication US9394289B2, “Inhibitors of c-fms kinase” (Janssen Pharmaceutica NV, priority 2006, dated 2016).

Each structure is given as a SMILES string. pIC50: −log10 of the molar value. Counter-ions that a name gives are not always drawn.

The target in one assay is c-fms (Homo sapiens (Human), UniProt P07333). The assay can be described thus: Autophosphorylation fluorescence polarization competition immunoassay for c-fms inhibition. It is filed as biochemical. The following applies: averages of three independent measurements; table head says 1 nM c-fms, method says 10 nM c-fms, 1 mM ATP; read-out: 1 nM c-fms; peptide Pi assay IC-50. As for the experimental part:
Fluorescence Polarization Competition Immunoassay
The assay buffer used was 100 mM 4-(2-hydroxyethyl)piperazine 1-ethanesulfonic acid (HEPES), pH 7.5, 1 mM 1,4-dithio-DL-threitol (DTT), 0.01% (v/v) Tween-20. Compounds were diluted in assay buffer containing 4% dimethylsulfoxide (DMSO) just prior to the assay. To each well, 5 μL of compound were added followed by the addition of 3 μL of a mix containing 33 nM c-fms (Johnson & Johnson PRD) and 16.7 mM MgCl2 (Sigma) in assay buffer. The kinase reaction was initiated by adding 2 μL of 5 mM ATP (Sigma) in assay buffer. […] Control reactions were ran in each plate: in positive and negative control wells, assay buffer (made 4% in DMSO) was substituted for the compound; in addition, positive control wells received 1.2 μL of 50 mM ethylenediaminetetraaceticacid (EDTA).
The plates were incubated at room temperature for 45 min. At the end of the incubation, the reaction was quenched with 1.2 μL of 50 mM EDTA (EDTA was not added to the positive control wells at this point; see above). Following a 5-min incubation, each well received 10 μL of a 1:1:3 mixture of anti-phosphotyrosine antibody, 10×, PTK green tracer, 10× (vortexed), FP dilution buffer, respectively (all from PanVera, cat. #P2837). The plate was covered, incubated for 30 min at room temperature and the fluorescence polarization was read on the Analyst. The instrument settings were: 485 nm excitation filter; 530 nm emission filter; Z height: middle of well; G factor: 0.93. […] The reported IC50 values are averages of three independent measurements.
A general note: Polarisation of emitted light reports the rotation of a fluorescent probe.

Assay [1] relates to mouse bone-marrow derived macrophages (BMDM). The assay can be described thus: CSF-1-driven mouse bone-marrow derived macrophages proliferation assay (BrDU incorporation). It is filed as cell-based. The following applies: Mus musculus, BMDM, 30 hrs culture, read-out: mCSF driven proliferation BMDM (Mouse) IC-50. How it is done:
CSF-1-Driven Mouse Bone-Marrow Derived Macrophages Assay
Macrophages are derived by culturing mouse bone marrow in alpha-MEM supplemented with 10% FCS and 50 ng/ml recombinant mouse CSF-1 in bacteriologic dishes. On the sixth day, macrophages are detached from dishes, washed, and resuspended to 0.05 million cells/ml in alpha-MEM containing 10% FCS. One hundred ul of cell suspension are distributed per well into 96 well culture plates. Wells are further supplemented with the addition of 50 ul media containing 15 ng/ml CSF-1, 3 uM Indomethacin, and 3× of a dilution series of test compounds. The cells are cultured for 30 hrs at 37 degrees and 5% CO2. During the final six hours, cultures are supplemented with an additional 30 ul of media containing a 1:500 dilution of bromodeoxyuridine (BrDU). At the end of the culture period, the plates are spun at 1000 RPM for 1 minute and 130 ul of media is removed with a pipet and replaced with 150 ul of fixative solution for 1 hour @ room temperature. The fixative is then dispelled from the plates and the plates allowed to air dry. Incorporation of BrDU into the fixed, dried cells is quantified using a specific ELISA.

Chain of c-fms (P07333 20-972): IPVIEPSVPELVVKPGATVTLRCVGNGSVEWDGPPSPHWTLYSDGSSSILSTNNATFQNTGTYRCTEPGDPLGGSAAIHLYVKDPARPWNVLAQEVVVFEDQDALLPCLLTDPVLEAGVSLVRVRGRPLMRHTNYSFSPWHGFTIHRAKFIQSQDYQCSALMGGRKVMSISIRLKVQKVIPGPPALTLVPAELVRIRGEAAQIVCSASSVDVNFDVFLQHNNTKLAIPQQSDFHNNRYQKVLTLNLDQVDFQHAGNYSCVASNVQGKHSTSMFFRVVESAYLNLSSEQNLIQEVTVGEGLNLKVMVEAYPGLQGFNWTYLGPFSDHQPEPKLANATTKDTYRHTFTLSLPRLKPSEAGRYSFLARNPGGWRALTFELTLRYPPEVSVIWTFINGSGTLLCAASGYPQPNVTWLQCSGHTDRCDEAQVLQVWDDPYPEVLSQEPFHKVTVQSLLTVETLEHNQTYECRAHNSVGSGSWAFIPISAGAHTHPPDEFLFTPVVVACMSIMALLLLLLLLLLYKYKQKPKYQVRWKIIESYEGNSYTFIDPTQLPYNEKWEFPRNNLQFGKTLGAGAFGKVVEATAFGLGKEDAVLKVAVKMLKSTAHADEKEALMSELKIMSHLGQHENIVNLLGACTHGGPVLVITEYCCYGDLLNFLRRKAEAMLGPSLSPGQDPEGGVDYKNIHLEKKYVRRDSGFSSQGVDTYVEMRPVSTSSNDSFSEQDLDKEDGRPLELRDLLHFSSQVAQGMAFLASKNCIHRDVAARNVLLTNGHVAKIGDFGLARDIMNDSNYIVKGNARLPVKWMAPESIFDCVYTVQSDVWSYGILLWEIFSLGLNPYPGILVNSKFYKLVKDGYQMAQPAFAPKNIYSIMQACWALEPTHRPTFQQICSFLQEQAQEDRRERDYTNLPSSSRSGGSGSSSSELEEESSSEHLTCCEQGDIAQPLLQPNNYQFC

For the molecule `CC1(C)CC=C(c2cc(C3(O)CCOCC3)ccc2NC(=O)c2ncc(C#N)[nH]2)CC1` [Example 1, 5-Cyano-1H-imidazole-2-carboxylic acid [2-(4,4-dimethyl-cyclohex-1-enyl)-4-(4-hydroxy-tetrahydro-pyran-4-yl)-phenyl]-amide], the pIC50 is 9.15 on c-fms and 8.40 in assay [1].

`CN(C)CCOC1(c2ccc(NC(=O)c3ncc(C#N)[nH]3)c(C3=CCC(C)(C)CC3)c2)CCOCC1` [Example 2, 5-Cyano-1H-imidazole-2-carboxylic acid [4-[4-(2-dimethylamino-ethoxy)-tetrahydro-pyran-4-yl]-2-(4,4-dimethyl-cyclohex-1-enyl)-phenyl]-amide trifluoroacetic acid salt]: the pIC50 on c-fms is 9.38; in assay [1], 8.66.

Take `CC1(C)CC=C(c2cc(C3(OCC(=O)O)CCOCC3)ccc2NC(=O)c2ncc(C#N)[nH]2)CC1` [Example 3, {4-[4-[(5-Cyano-1H-imidazole-2-carbonyl)-amino]-3-(4,4-dimethyl-cyclohex-1-enyl)-phenyl]-tetrahydro-pyran-4-yloxy}-acetic acid]: the pIC50 on c-fms was 8.77.

Take `COCCNC1(c2ccc(NC(=O)c3nc(C#N)c[nH]3)c(C3=CCC(C)(C)CC3)c2)CCOCC1` [Example 4, 4-Cyano-1H-imidazole-2-carboxylic acid {2-(4,4-dimethyl-cyclohex-1-enyl)-4-[4-(2-methoxy-ethylamino)-tetrahydro-pyran-4-yl]-phenyl}-amide]: the pIC50 at c-fms is 8.74; in assay [1], 7.85.

With `CC1(C)CC=C(c2cc(C3(N)CCOCC3)ccc2NC(=O)c2ncc(C#N)[nH]2)CC1` [Example 5, 5-Cyano-1H-imidazole-2-carboxylic acid [4-(4-amino-tetrahydro-pyran-4-yl)-2-(4,4-dimethyl-cyclohex-1-enyl)-phenyl]-amide], the pIC50 at c-fms was 9.30; in assay [1], 8.62.

For the molecule `CC1(C)CC=C(c2cc(C3(N4CCOCC4)CCOCC3)ccc2NC(=O)c2ncc(C#N)[nH]2)CC1` [Example 6, 5-Cyano-1H-imidazole-2-carboxylic acid [2-(4,4-dimethyl-cyclohex-1-enyl)-4-(4-morpholin-4-yl-tetrahydro-pyran-4-yl)-phenyl]-amide], the values for the pIC50 (on c-fms; in assay [1]) were 8.80 and 7.82, respectively.

For the molecule `CN(C)C1(c2ccc(NC(=O)c3ncc(C#N)[nH]3)c(C3=CCC(C)(C)CC3)c2)CCOCC1` [Example 7, 5-Cyano-1H-imidazole-2-carboxylic acid [4-(4-dimethylamino-tetrahydro-pyran-4-yl)-2-(4,4-dimethyl-cyclohex-1-enyl)-phenyl]-amide], the pIC50 on c-fms is 9.17; in assay [1], 7.96.

On to `CN1CCN(C2(c3ccc(NC(=O)c4ncc(C#N)[nH]4)c(C4=CCC(C)(C)CC4)c3)CCOCC2)CC1` [Example 8, 5-Cyano-1H-imidazole-2-carboxylic acid {2-(4,4-dimethyl-cyclohex-1-enyl)-4-[4-(4-methyl-piperazin-1-yl)-tetrahydro-pyran-4-yl]-phenyl}-amide], for which the pIC50 is 8.40 at c-fms and 7.82 in assay [1].

On to `CC1(C)CC=C(c2cc(C3(N4CCNCC4)CCOCC3)ccc2NC(=O)c2ncc(C#N)[nH]2)CC1` [Example 9, 5-Cyano-1H-imidazole-2-carboxylic acid [2-(4,4-dimethyl-cyclohex-1-enyl)-4-(4-piperazin-1-yl-tetrahydro-pyran-4-yl)-phenyl]-amide], for which the pIC50 on c-fms was 8.72; in assay [1], 7.00.

As to `N#Cc1c[nH]c(C(=O)Nc2ccc(C3(O)CCS(=O)(=O)CC3)cc2C2=CCCCC2)n1` [Example 15, 4-Cyano-1H-imidazole-2-carboxylic acid [2-cyclohex-1-enyl-4-(4-hydroxy-1,1-dioxo-hexahydro-1λ^6-thiopyran-4-yl)-phenyl]-amide], in assay [1], the pIC50 was 7.85.
